Reference: publication PMC9224512, “New Insights into the Determinants of Specificity in Human Type I Arginase: Generation of a Mutant That Is Only Active with Agmatine as Substrate” (International Journal of Molecular Sciences, 2022)
Residue numbers refer to the chain shown, from its start.

Assays:
[1] = target: T1, WT-arginase (human arginase type I) (Homo sapiens, UniProt P05089); experiment: Kinetic and inhibition studies, wild-type human arginase type I; format: biochemical; settings: for Inhibition type / Kis (Ki): substrate arginine
T1 construct: made in house; host or cells: E. coli JM109
T1 sequence (P05089 1-322): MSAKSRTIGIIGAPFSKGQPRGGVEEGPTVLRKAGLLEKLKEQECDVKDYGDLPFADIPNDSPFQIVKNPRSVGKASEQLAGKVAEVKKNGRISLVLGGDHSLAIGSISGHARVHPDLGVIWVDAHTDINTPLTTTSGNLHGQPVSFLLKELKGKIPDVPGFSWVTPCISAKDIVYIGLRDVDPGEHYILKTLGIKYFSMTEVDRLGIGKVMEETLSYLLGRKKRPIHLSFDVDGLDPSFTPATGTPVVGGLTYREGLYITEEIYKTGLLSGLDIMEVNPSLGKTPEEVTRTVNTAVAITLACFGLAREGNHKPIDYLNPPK
Method: (§1) Bacterial cultures were grown with shaking at 37 °C in Luria Broth media, in the presence of ampicillin (100 μg/mL). The wild-type and mutant human liver arginase cDNAs were directionally cloned into the pBluescript II KS(+) expression vector and then expressed in E. coli JM109, following induction with 1 mM isopropyl β-D-thiogalactopyranoside. The bacterial cells were disrupted by sonication on ice (5 × 30 s pulses), centrifuged for 20 min at 12,000× g, and the obtained supernatant was precipitated with ammonium sulfate (60% saturation). The pellet, collected by centrifugation at 12,000× g for 10 min, was re-suspended in buffer 5 mM Tris–HCl (pH 7.5) containing 2 mM MnCl2 and dialyzed for 6 h at 4 °C against the same buffer. After incubation with 5 mM MnCl2 for 10 min at 60 °C, the enzyme variants were purified as previously described. The purity of the enzymes was evaluated by SDS–PAGE stained by Coomassie blue and immunodetection using an anti- rat arginase I antibody.
(§2) All assays were initiated by adding the enzyme to a previously equilibrated buffer with the substrate in solution (the concentrations of used substrates were between 0.2–3 fold the Km). Urea was determined by a colorimetric method with α-isonitrosopropiophenone. The protein concentrations were determined by the Bradford’s method, with bovine serum albumin as standard. Initial velocity and enzymatic inhibition experiments were performed in duplicate and repeated three times. The inhibitory patterns were initially determined by double reciprocal plots and re-plots of intercepts and slopes versus inhibitor concentrations. […] Velocities are expressed as μmol of urea/10 min.

[2] = target: T2, human arginase type I N130D (Homo sapiens, UniProt P05089, N130D); experiment: Kinetic and inhibition studies, N130D mutant; format: biochemical; settings: arginine 5 mM, pH 9.5; Figure 3A
T2 sequence (P05089 1-322 N130D): T1 sequence (P05089 1-322) with N130D
Method: as §1
(§3) The single, double, triple, and chimera variants of human arginase type I were obtained by PCR, using the QuickChange site-directed mutagenesis kit (Stratagene, La Jolla, CA, USA); the plasmid pBluescript II KS(+) containing the human liver arginase cDNA was used as template. To obtain the chimeric species of human arginase type I, serial mutations were made in each loop to be modified, using as template DNA the wild-type arginase gene or the previous done mutation, subcloned in the plasmid pBluescript II KS (+). Specifically, the residues present in the arginase structure were replaced by those corresponding to the agmatinase sequence of E. coli.
as §2

[3] = target: T3, human arginase type I S137C (Homo sapiens, UniProt P05089, S137C); experiment: Kinetic and inhibition studies, S137C mutant; format: biochemical; settings: arginine 5 mM, pH 9.5; Figure 3A
T3 sequence (P05089 1-322 S137C): T1 sequence (P05089 1-322) with S137C
Method: as §1, §3, §2

[4] = target: T4, human arginase type I N139D (Homo sapiens, UniProt P05089, N139D); experiment: Kinetic and inhibition studies, N139D mutant; format: biochemical; settings: arginine 5 mM, pH 9.5; Figure 3A
T4 sequence (P05089 1-322 N139D): T1 sequence (P05089 1-322) with N139D
Method: as §1, §3, §2

E. coli agmatinase = target: T5, E. coli agmatinase (Escherichia coli, UniProt P60651); experiment: Kinetic studies, E. coli agmatinase; format: biochemical; settings: substrate = labelled compound; n/a = no activity with the substrate
T5 sequence (P60651 1-306): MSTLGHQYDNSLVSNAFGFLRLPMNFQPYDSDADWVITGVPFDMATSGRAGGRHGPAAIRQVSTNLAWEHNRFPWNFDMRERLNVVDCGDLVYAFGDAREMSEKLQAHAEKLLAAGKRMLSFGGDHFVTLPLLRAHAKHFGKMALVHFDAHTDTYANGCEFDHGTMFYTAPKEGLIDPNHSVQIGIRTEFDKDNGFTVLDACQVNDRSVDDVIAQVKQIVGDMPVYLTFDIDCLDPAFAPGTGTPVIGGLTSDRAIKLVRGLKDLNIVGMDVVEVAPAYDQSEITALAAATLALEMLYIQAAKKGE
Method: as §2

[5] = target: T6, Chimera A1 (I129T/N130Y/T131A) of human arginase type I (Homo sapiens, UniProt P05089, I129T/N130Y/T131A); experiment: Kinetic and inhibition studies, Chimera A1; format: biochemical; settings: substrate arginine
T6 sequence (P05089 1-322 I129T/N130Y/T131A): T1 sequence (P05089 1-322) with I129T, N130Y, T131A
Method: as §1, §3, §2

rat liver arginase = tested on: rat liver arginase; set-up: method as in PMID 8031143; settings: substrate agmatine; cited from earlier work
[6] = target: T7, Chimera A2 (I129T/N130Y/T131A+∆ P132-T134) of human arginase type I (Homo sapiens, UniProt P05089, DEL129-131/I129T/L133Y/N130Y/P132T/T134A); experiment: Kinetic and inhibition studies, Chimera A2; format: biochemical; settings: substrate agmatine
T7 construct: made in house; host or cells: E. coli JM109
T7 sequence (P05089 with tags, fused parts or gaps DEL129-131/P132T/L133Y/T134A): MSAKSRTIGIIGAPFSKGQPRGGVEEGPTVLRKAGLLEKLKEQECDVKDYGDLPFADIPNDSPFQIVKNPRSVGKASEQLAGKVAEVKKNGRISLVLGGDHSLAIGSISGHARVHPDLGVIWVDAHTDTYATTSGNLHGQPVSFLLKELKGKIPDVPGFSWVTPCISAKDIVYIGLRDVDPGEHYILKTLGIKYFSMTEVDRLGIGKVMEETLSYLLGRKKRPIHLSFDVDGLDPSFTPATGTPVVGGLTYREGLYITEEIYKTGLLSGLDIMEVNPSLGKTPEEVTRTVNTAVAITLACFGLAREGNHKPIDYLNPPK
Method: as §1, §3, §2

[7] = target: T8, type I human arginase D181T (Homo sapiens, UniProt P05089, D181T); experiment: Kinetic and inhibition studies, D181T mutant; format: biochemical; settings: substrate arginine
T8 sequence (P05089 1-322 D181T): T1 sequence (P05089 1-322) with D181T
Method: as §1, §3, §2

[8] = target: T9, type I human arginase V182E (Homo sapiens, UniProt P05089, V182E); experiment: Kinetic and inhibition studies, V182E mutant; format: biochemical; settings: substrate arginine
T9 sequence (P05089 1-322 V182E): T1 sequence (P05089 1-322) with V182E
Method: as §1, §3, §2

[9] = target: T10, type I human arginase D181T/V182E (Homo sapiens, UniProt P05089, D181T/V182E); experiment: Kinetic and inhibition studies, D181T/V182E double mutant; format: biochemical; settings: substrate arginine
T10 construct: made in house; host or cells: E. coli JM109
T10 sequence (P05089 1-322 D181T/V182E): T1 sequence (P05089 1-322) with D181T, V182E
Method: as §1, §3, §2

[10] = target: T11, type I human arginase D181T/V182E + ins F (Homo sapiens, UniProt P05089, D181E/D181T/INS180T/V182E/V182F); experiment: Kinetic and inhibition studies, D181T/V182E + ins F; format: biochemical; settings: substrate arginine
T11 sequence (P05089 with tags, fused parts or gaps INS180T/D181E/V182F): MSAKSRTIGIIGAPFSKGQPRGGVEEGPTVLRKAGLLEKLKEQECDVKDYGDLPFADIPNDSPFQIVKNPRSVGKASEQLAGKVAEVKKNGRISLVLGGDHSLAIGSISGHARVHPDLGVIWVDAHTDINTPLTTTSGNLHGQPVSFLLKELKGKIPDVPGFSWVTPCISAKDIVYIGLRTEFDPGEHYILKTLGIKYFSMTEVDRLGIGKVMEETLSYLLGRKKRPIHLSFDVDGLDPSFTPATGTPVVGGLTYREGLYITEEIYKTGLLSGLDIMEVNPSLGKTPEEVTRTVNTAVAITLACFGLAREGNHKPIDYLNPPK
Method: as §1, §3, §2

| SMILES | Inhibition of arginase activity by agmatine ([1]; arginine 5 mM, pH 9.5, Figure 3A) | Inhibition type [1] | Kis (Ki) ([1]; pH 9.5) [mM] | Inhibition of arginase activity by agmatine [2] | Inhibition of arginase activity by agmatine [3] | Inhibition of arginase activity by agmatine [4] | kcat (E. coli agmatinase) [s⁻¹] | Inhibition type [5] | Kis (Ki) [5] [mM] | kcat, times lower than for arginine (rat liver arginase) | Inhibition type [6] | Kis [6] [mM] | Inhibition type [7] | Kis [7] [mM] | Inhibition type [8] | Kis [8] [mM] | Inhibition type [9] | Kis (Ki) [9] [mM] | Inhibition type [10] | Kis [10] [mM] |
| --- | --- | --- | --- | --- | --- | --- | --- | --- | --- | --- | --- | --- | --- | --- | --- | --- | --- | --- | --- | --- |
| N=C(N)NCCCCN [Agmatine, 1-amino-4-guanidinobutane] | poorly inhibited | Competitive | 42 ± 5 | markedly sensitive | markedly sensitive | markedly sensitive | 120 ± 10 | Competitive | 27 ± 2 | approximately 5000 times |  |  |  |  |  |  |  |  |  |  |
| N=C(N)N [Guanidine, guanidine] |  | Competitive | 56 ± 4 |  |  |  |  | Competitive | 38 ± 6 |  | linear competitive inhibition | 40 ± 6 | Competitive | 85 ± 10 | Competitive | 89 ± 12 | Competitive | 80 ± 5 | Competitive | 70 ± 10 |
| NCCCC[C@H](N)C(=O)O [Lysine, lysine] |  |  | 5 |  |  |  |  |  |  |  |  |  |  |  |  |  | competitively inhibited | 42 |  |  |
| NCCCCN [Putrescine, putrescine] |  |  |  |  |  |  |  |  |  |  | competitive |  |  |  |  |  | competitively inhibited |  |  |  |
